In patent US7776790B2 (Platte Chemical Co., priority 2001, dated 2010):

What was measured:
[1] = pKa of the acid herbicide in the formulation, measured; type: physicochemical; conditions: 2,4-D acid in PCC-1133; glyphosate acid in PCC-1168
[2] = per approximately 100 grams of an aqueous solution (one weight percent); depending on temperature and pH; cited from earlier work

| SMILES | pKa [1] | solubility in water or acidic water [2] |
| --- | --- | --- |
| O=C(O)COc1ccc(Cl)cc1Cl [2,4-D acid, 2,4-dichlorophenoxy acetic acid] | 2.87 | – |
| O=C(O)CNCP(=O)(O)O [glyphosate acid, N-(phosphonomethyl)glycine] | ~2.5 | approximately 1 gram |
